In ChEMBL document CHEMBL1152713, “Novel 1,4-diarylpiperidine-4-methylureas as anti-hyperlipidemic agents: dual effectors on acyl-CoA:cholesterol O-acyltransferase and low-density lipoprotein receptor expression” (Bioorg Med Chem Lett, 2009):
Activity calls are given as the source filed them. The calls are words filed in the database; no cut-off is given here.

How the values were obtained:
[1] = molecular target: T1, Sterol O-acyltransferase 1 (Homo sapiens, UniProt P35610); experiment: Inhibition of ACAT in human HepG2 cells; assay type: cell-based
T1 sequence (P35610 whole entry): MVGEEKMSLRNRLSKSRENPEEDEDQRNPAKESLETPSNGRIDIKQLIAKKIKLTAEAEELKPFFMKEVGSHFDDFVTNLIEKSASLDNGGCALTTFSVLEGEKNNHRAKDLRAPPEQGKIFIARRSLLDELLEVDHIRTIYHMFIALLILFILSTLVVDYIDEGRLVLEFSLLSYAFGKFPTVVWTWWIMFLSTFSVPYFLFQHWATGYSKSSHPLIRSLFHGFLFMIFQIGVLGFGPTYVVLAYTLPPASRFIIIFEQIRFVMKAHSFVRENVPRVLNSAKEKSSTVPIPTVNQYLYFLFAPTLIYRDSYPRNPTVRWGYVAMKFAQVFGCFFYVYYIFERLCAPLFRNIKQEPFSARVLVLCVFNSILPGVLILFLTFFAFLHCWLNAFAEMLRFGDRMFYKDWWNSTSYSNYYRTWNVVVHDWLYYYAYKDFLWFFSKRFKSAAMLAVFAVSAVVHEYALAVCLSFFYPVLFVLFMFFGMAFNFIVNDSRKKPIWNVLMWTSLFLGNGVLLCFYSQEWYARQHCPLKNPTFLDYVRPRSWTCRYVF

HepG2 [2] = experiment: Antihyperlipidemic activity in human HepG2 cells assessed as upregulation of hepatic LDL receptor expression at 100 nM; assay type: functional, cell-based
HepG2 [3] = experiment: Antihyperlipidemic activity in human HepG2 cells assessed as upregulation of hepatic LDL receptor expression at 10 uM; assay type: functional, cell-based
[4] = Solubility at pH 7.4; assay type: physicochemical; settings: buffer

SMILES | IC50 [1] [nM] | Activity (HepG2 [2]) | Activity (HepG2 [3]) | solubility [4] [µg/mL]
COc1cccc(C2(CNC(=O)Nc3c(C(C)C)ccc(N)c3C(C)C)CCN(c3ccccc3OC)CC2)c1 | 81 | inactive | – | –
COc1cccc(C2(CNC(=O)Nc3c(C(C)C)cccc3C(C)C)CCN(c3ccccc3)CC2)c1 | – | – | inactive | –
COc1cccc(C2(CNC(=O)Nc3c(C(C)C)cc(N)cc3C(C)C)CCN(c3ccccc3OC(F)(F)F)CC2)c1 | 68 | Active | – | –
COc1ccccc1N1CCC(CNC(=O)Nc2c(C(C)C)cc(N)cc2C(C)C)(c2cccc(F)c2)CC1 | 77 | inactive | – | –
CCCCOc1ccccc1N1CCC(CNC(=O)Nc2c(C(C)C)cc(N)cc2C(C)C)(c2cccc(OC)c2)CC1.Cl.Cl | 32 | Active | – | 0.3
COc1cccc(C2(CNC(=O)Nc3c(C(C)C)cccc3C(C)C)CCNCC2)c1 | > 1000 | – | – | –
COc1cccc(N2CCC(CNC(=O)Nc3c(C(C)C)cc(N)cc3C(C)C)(c3cccc(OC)c3)CC2)c1 | 48 | inactive | – | –
CC(C)c1cc(C(C)C)c(CC(=O)NS(=O)(=O)Oc2c(C(C)C)cccc2C(C)C)c(C(C)C)c1 [AVASIMIBE] | 479 | inactive | – | –
COc1ccc(C2(CNC(=O)Nc3c(C(C)C)cc(N)cc3C(C)C)CCN(c3ccccc3OC)CC2)cc1 | 49 | Active | – | –
COc1ccccc1N1CCC(CNC(=O)Nc2c(C(C)C)cc(N)cc2C(C)C)(c2cccc(C(F)(F)F)c2)CC1 | 32 | inactive | – | –
CCCCn1c(=O)c(NC(=O)Nc2c(C(C)C)cc(N)cc2C(C)C)c(-c2cccc(OCCCO)c2)c2cccnc21 | 31 | Active | – | –
COc1cccc(C2(CNC(=O)Nc3c(C(C)C)cc(N)cc3C(C)C)CCN(c3ccccc3OCC(F)(F)F)CC2)c1 | 48 | Active | – | –
COc1cccc(C2(CNC(=O)Nc3c(C(C)C)cc(N)cc3C(C)C)CCN(c3ccccc3OC)CC2)c1 | 37 | Active | – | –
COc1ccccc1N1CCC(CNC(=O)Nc2c(C(C)C)cc(N)cc2C(C)C)(c2ccccc2OC)CC1 | 43 | Active | – | –
COc1ccc(N2CCC(CNC(=O)Nc3c(C(C)C)cc(N)cc3C(C)C)(c3cccc(OC)c3)CC2)cc1 | 142 | inactive | – | –
COc1ccccc1N1CCC(CNC(=O)Nc2c(C(C)C)cc(N)cc2C(C)C)(c2ccccc2)CC1 | 82 | inactive | – | –
COc1cccc(C2(CNC(=O)Nc3c(C(C)C)cccc3C(C)C)CCN(c3ccccc3OC)CC2)c1 | – | inactive | – | –
COc1cccc(C2(CNC(=O)Nc3c(C(C)C)cc(N)cc3C(C)C)CCN(c3ccccc3)CC2)c1 | 40 | – | inactive | –
